This passage reports Kd results from PMC3838380, “Investigating the Allosteric Regulation of YfiN from Pseudomonas aeruginosa: Clues from the Structure of the Catalytic Domain” (PLoS ONE, 2013).

The Kd is the free concentration of one partner at which half of the binding sites on the other are occupied at equilibrium, for simple one-to-one binding. The low end stands for higher affinity, the high end for lower affinity.

The target in one assay is T1, YfiNHAMP-GGDEF (Pseudomonas aeruginosa, UniProt Q9I4L5).
T1 construct: gene tpbB; cytosolic HAMP-GGDEF portion, residues 183-435, C-terminal His-tag (pET24b), synthetic gene, E. coli BL21(DE3), about 28 kDa, monomeric by AUC
T1 sequence (Q9I4L5 183-435): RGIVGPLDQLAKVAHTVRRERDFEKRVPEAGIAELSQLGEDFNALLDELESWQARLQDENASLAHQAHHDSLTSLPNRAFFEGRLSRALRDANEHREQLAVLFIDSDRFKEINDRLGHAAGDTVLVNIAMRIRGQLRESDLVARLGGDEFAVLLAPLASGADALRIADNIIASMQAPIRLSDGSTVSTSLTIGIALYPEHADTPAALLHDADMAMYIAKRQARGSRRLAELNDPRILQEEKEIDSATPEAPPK
Put plainly: isothermal titration calorimetry. The format is binding. The text has this: isothermal titration calorimetry on YfiNHAMP-GGDEF

The target of the next assay is T2, YfiNGGDEF (Pseudomonas aeruginosa, UniProt Q9I4L5).
T2 construct: gene tpbB
T2 sequence (Q9I4L5 232-435): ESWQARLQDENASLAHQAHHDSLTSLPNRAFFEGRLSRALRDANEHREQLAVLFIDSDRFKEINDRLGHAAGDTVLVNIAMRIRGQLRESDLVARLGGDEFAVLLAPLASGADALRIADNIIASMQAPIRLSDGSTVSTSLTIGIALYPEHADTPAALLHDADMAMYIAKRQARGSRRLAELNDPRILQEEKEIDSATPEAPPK
Description: isothermal titration calorimetry. The format is binding. The text has this:
isothermal titration calorimetry on YfiNGGDEF
In general terms: In ITC the heat of successive injections is recorded.

In the case of `Nc1nc2c(ncn2[C@@H]2O[C@H](COP(=O)(O)OP(=O)(O)OP(=O)(O)O)[C@@H](O)[C@H]2O)c(=O)[nH]1` [GTP], the values for the Kd on YfiNHAMP-GGDEF and on YfiNGGDEF were 0.18 µM and 0.067 µM, respectively.
